16 compounds from PMC8304634, “Structure–Activity Relationships of the Antimalarial Agent Artemisinin 10. Synthesis and Antimalarial Activity of Enantiomers of rac-5β-Hydroxy-D-Secoartemisinin and Analogs: Implications Regarding the Mechanism of Action” (Molecules, 2021) can be followed below.

≈ marks a conversion by molar mass, not a printed value. Entries after “also recorded” stand apart in the source; their conditions may differ.

For series [1], the system named is P. falciparum Sierra Leone (D-6) clone. Briefly: In vitro antimalarial pLDH assay, D-6 clone. The series is classed as cell-based. The settings on record: for IC50: Plasmodium falciparum, Erythrocyte, read-out: IC50 (ng/mL) D-6; for IC50 / IC50 (ng/mL) D-6: 72 h, parasitized red blood cells, pLDH readout, NA = Not active. How it is done: (§1) Artemisinin 1 and the analogs rac-2, 2a, 2b, 9–16, diastereomers 19a, 19b, 22 and 29 were tested in vitro in parasitized whole blood against drug-resistant strains of P. falciparum parasite clones D-6 and W-2 at The National Center for Natural Products Research (NCNPR) at The University of Mississippi using the parasite lactate dehydrogenase (pLDH) assay developed by Makler (Table 3). This assay is based on the ability of the pLDH enzyme of P. falciparum to reduce APAD to APADH. This reaction is carried out at a slow rate by human red blood cell LDH.
(§2) The formation of APADH was monitored colorimetrically by the addition of nitroblue tetrazolium which was reduced to a blue formazan product. Two P. falciparum malaria parasite clones, designated as Indochina (W-2) and Sierra Leone (D-6), were used in susceptibility testing. The W-2 clone is chloroquine-resistant and mefloquine-sensitive, while the D-6 clone is chloroquine-sensitive but mefloquine resistant. The relative potency values for these analogs were derived from the IC50 value for artemisinin (1) divided by their IC50 values (Table 3) and then adjusted for molecular weight differences by multiplication of the ratio of the molecular weight of the analog divided by the molecular weight of artemisinin. This approach to reporting activity was based in part on the fact that the analogs were tested on different occasions in which the IC50 for the control, artemisinin, had varied anywhere from 5 to 7 ng/mL based on parasitemia levels and clone.
(§3) Synthesized compounds were tested in vitro against two P. falciparum malaria parasite clones, designated as Indochina (W-2) and Sierra Leone (D-6). The W-2 clone is chloroquine resistant whereas the D-6 clone is a chloroquine-sensitive strain.
(§4) A suspension of red blood cells infected with W-2 or D-6 strain of P. falciparum that contains 2% parasitemia and 2% hematocrit in RPMI 1640 medium supplemented with 10% human serum and 60 µg/mL amikacin was dispensed into the wells of a 96-well flat-bottomed microtiter plate containing 10 µL of serially diluted test samples. The plates were incubated at 37 °C in an environment of 90% N2, 5% O2, and 5% CO2 for 72 h. Next, 100 µL aliquots of the Malstat reagent were added to each well of a new 96-well microtiter plate. The cultures were resuspended from the assay plate by mixing each well up and down several times. A total of 20 µL from each well of the resuspended culture was removed and added to the plate containing the Malstat reagent and the plate was incubated at r.t., for 30 min. Further, to each well, 20 µL of a NBT/PES (1:1) solution (2 and 0.1 mg/mL, respectively) were added. The plate was incubated in the dark for 1 h. The reaction was terminated by the addition of 100 µL of a 5% acetic acid solution. The […] plate was then read at 650 nm. Artemisinin and chloroquine were included in each assay as antimalarial drug controls. The IC50 values were computed from the dose–response curves using XLfit 4.2.

Series [2] relates to P. falciparum Indochina (W-2) clone. Briefly: In vitro antimalarial pLDH assay, W-2 clone. The series is classed as cell-based. Particulars: for IC50: Plasmodium falciparum, Erythrocyte, read-out: IC50 (ng/mL) W-2; for IC50 / IC50 (ng/mL) W-2: 72 h, parasitized red blood cells, pLDH readout, NA = Not active. How it is done:
as §1, §2, §3, §4

The test system of series [3] is P. falciparum. The series can be described thus: In vitro antimalarial pLDH assay, clone not distinguished in the statement. The settings on record: for in vitro antimalarial activity (in words): W-2 and D-6 strains. Format: cell-based. How it is done: as §1, §2, §3, §4
[4] abbreviates: as quoted in the Discussion, relative to artemisinin.
Setting [5] is: 100 × [IC50 (artemisinin, control value)/IC50 (analog)] MW (analog)/MW(artemisinin).

Take `CC12CC(O)C3CCCCC3(CO1)OO2` (racemic) [rac-2, 3-Methyloctahydro-1h-3,9a-epidioxybenzo[c]oxepin-5-ol]: the melting point (usually the temperature of the solid-liquid transition) was in the range of 109 to 111 °C. Further, in series [1], the IC50 worked out at 1720 ng/mL (≈ 8.01 µM). Moreover, in series [1] (setting [4]), the “Relative Activity D-6” value turned out to be 0.62%. In series [2] (setting [5]), the “Relative Activity W-2” value turned out to be 0.43. Moreover, the IC50 in series [2] is 1780 ng/mL (≈ 8.3 µM). For the same compound, the “Relative Activity W-2” value in series [2] (setting [4]) is listed as 0.43%.

In the case of `C[C@@H]1CC[C@H]2[C@@H](C)C(=O)O[C@@H]3O[C@@]4(C)CC[C@@H]1[C@]32OO4` [Compound 1, Artemisinin], the “Relative Activity D-6” value in series [1] (setting [5]) was determined as 100. Also, the IC50 in series [1] is 7.05 ng/mL (≈ 0.025 µM); in series [2], 5.08 ng/mL (≈ 0.018 µM); in series [3] (Plasmodium falciparum, varied between test occasions, based on parasitemia levels and clone, read-out: IC50 for the control, artemisinin), 5 to 7 ng/mL (≈ 0.0177 to 0.0248 µM). For the same compound, the “Relative Activity W-2” value in series [2] (setting [5]) turned out to be 100.

Regarding `C[C@@]12C[C@@H](O)[C@H]3CCCC[C@]3(CO1)OO2` [Compound 2a, (3R,5R,5aR,9aS)-3-methyloctahydro-1H-3,9a-epidioxybenzo[c]oxepin-5-ol], the melting point was 108 to 110 °C. In addition, the “Relative Activity D-6” value in series [1] (setting [5]) amounted to 0.43. For the same compound, in series [1], the IC50 came out at 1260 ng/mL (≈ 5.86 µM). Further, in series [1] (setting [4]), the “Relative Activity D-6” value was 0.43%. In series [2] (setting [5]), the “Relative Activity W-2” value is on record as 0.44. Besides, the IC50 in series [2] came out at 885 ng/mL (≈ 4.13 µM). The “Relative Activity W-2” value in series [2] (setting [4]) is listed as 0.44%. Also, the “in vitro antimalarial activity (in words)” value in series [3] is “Antimalarial activity resided with only the artemisinin-like enantiomer; also recorded: the only alcohol of the pair with antimalarial activity”.

In the case of `C[C@]12C[C@H](O)[C@@H]3CCCC[C@@]3(CO1)OO2` [Compound 2b, (3S,5S,5aS,9aR)-3-methyloctahydro-1H-3,9a-epidioxybenzo[c]oxepin-5-ol], the melting point is 107 to 109 °C. The “in vitro antimalarial activity (in words)” value in series [3] was “devoid of antimalarial activity”.

As to `CCCCC(=O)OC1CC2(C)OCC3(CCCCC13)OO2` (stereo not shown) [Compound 9, 3-Methyloctahydro-1H-3,9a-epidioxybenzo[c]oxepin-5-yl pentanoate], the “Relative Activity D-6” value in series [1] (setting [5]) is recorded as 5.00. For the same compound, the IC50 in series [1] worked out at 149 ng/mL (≈ 0.5 µM); in series [2], 209 ng/mL (≈ 0.7 µM). In addition, in series [2] (setting [5]), the “Relative Activity W-2” value amounted to 2.60.

The compound `CC12CC(OC(=O)c3ccccc3)C3CCCCC3(CO1)OO2` (stereo not shown) [Compound 10, 3-Methyloctahydro-1H-3,9a-epidioxybenzo[c]oxepin-5-yl benzoate] showed a melting point of 100 to 102 °C. In addition, in series [1] (setting [5]), the “Relative Activity D-6” value is listed as 10.40. In addition, the IC50 in series [1] was 153 ng/mL (≈ 0.48 µM). Moreover, the “Relative Activity W-2” value in series [2] (setting [5]) came out at 9.50. The IC50 in series [2] was 121 ng/mL (≈ 0.38 µM).

Take `CC12CC(OC(=O)c3ccc(F)cc3)C3CCCCC3(CO1)OO2` (stereo not shown) [Compound 11, 3-Methyloctahydro-1H-3,9a-epidioxybenzo[c]oxepin-5-yl 4-fluorobenzoate]: the melting point fell in the range of 88 to 90 °C. Also, the “Relative Activity D-6” value in series [1] (setting [5]) was 20.81. Further, in series [1], the IC50 was determined as 80.7 ng/mL (≈ 0.24 µM). Besides, the “Relative Activity D-6” value in series [1] (setting [4]) was 20.81%. For the same compound, the “Relative Activity W-2” value in series [2] (setting [5]) was 12.41. Moreover, the IC50 in series [2] is 97.5 ng/mL (≈ 0.29 µM). For the same compound, the “Relative Activity W-2” value in series [2] (setting [4]) is on record as 12.41%.

`COc1ccc(C(=O)OC2CC3(C)OCC4(CCCCC24)OO3)cc1` (stereo not shown) [Compound 12, 3-Methyloctahydro-1H-3,9a-epidioxybenzo[c]oxepin-5-yl 4-methoxybenzoate] registered a melting point of 155 to 157 °C. For the same compound, the “Relative Activity D-6” value in series [1] (setting [5]) is 15.13. The IC50 in series [1] was 115 ng/mL (≈ 0.33 µM). In addition, in series [2] (setting [5]), the “Relative Activity W-2” value amounted to 7.50. In addition, in series [2], the IC50 was 167 ng/mL (≈ 0.48 µM).

As to `CC12CC(OC(=O)C=Cc3ccccc3)C3CCCCC3(CO1)OO2` (stereo not shown) [Compound 13, 3-Methyloctahydro-1H-3,9a-epidioxybenzo[c]oxepin-5-yl cinnamate], the “Relative Activity D-6” value in series [1] (setting [5]) was determined as 13.14. Moreover, the IC50 in series [1] amounted to 131 ng/mL (≈ 0.38 µM); in series [2], 148 ng/mL (≈ 0.43 µM). Further, in series [2] (setting [5]), the “Relative Activity W-2” value worked out at 8.37.

`CC12CC(OC(=O)c3ccc(Cl)cc3)C3CCCCC3(CO1)OO2` (stereo not shown) [Compound 14, 3-Methyloctahydro-1H-3,9a-epidioxybenzo[c]oxepin-5-yl 4-chlorobenzoate] had a melting point of 110 to 112 °C. In addition, the “Relative Activity D-6” value in series [1] (setting [5]) is listed as 12.18. Further, in series [1], the IC50 is 145 ng/mL (≈ 0.41 µM). Moreover, the “Relative Activity W-2” value in series [2] (setting [5]) is reported as 10.58. In series [2], the IC50 was found to be 120 ng/mL (≈ 0.34 µM).

With `CC12CC(=O)C3CCCCC3(CO1)OO2` (stereo not shown) [Compound 15, 3-Methylhexahydro-1H-3,9a-epidioxybenzo[c]oxepin-5(5aH)-one], the “Relative Activity D-6” value in series [1] (setting [5]) is listed as 33.30; in series [1] (setting [4]) it was 33.30%. Moreover, the values for the IC50 in series [1] and in series [2] were 31.8 ng/mL (≈ 0.15 µM) and 23.3 ng/mL (≈ 0.11 µM), respectively. Besides, the entries for the “Relative Activity W-2” value in series [2] (setting [5]) and in series [2] (setting [4]) were 32.72 and 32.72%, respectively. Moreover, the “in vitro antimalarial activity (in words)” value in series [3] is given as “substantially improved over the corresponding alcohol 2”. The “times more potent than the alcohol rac-2 or 2a” value in series [3] (fold potency versus rac-2 or 2a) was 55–77.

For the compound `C=C1CC2(C)OCC3(CCCCC13)OO2` (stereo not shown) [Compound 16], in series [1] (setting [5]), the “Relative Activity D-6” value is reported as 3.05. Besides, the results for the IC50 in series [1] and in series [2] were 345 ng/mL (≈ 1.64 µM) and 346 ng/mL (≈ 1.65 µM), respectively. For the same compound, the “Relative Activity W-2” value in series [2] (setting [5]) came out at 2.18.

As to `COC(C(=O)OC1CC2(C)OCC3(CCCCC13)OO2)(c1ccccc1)C(F)(F)F` [Compound 19a, (3R,5R,5aR,9aS)-3-methyloctahydro-1H-3,9a-epidioxybenzo[c]oxepin-5-yl(R)-3,3,3-trifluoro-2-methoxy-2-phenylpropanoate], the “Relative Activity D-6” value in series [1] (setting [5]) is 7.13. Moreover, the “IC50 (ng/mL) D-6” value in series [1] came to 150.64 ng/mL (≈ 0.35 µM). The “Relative Activity W-2” value in series [2] (setting [5]) is given as 2.17. In addition, the “IC50 (ng/mL) W-2” value in series [2] is listed as 357.24 ng/mL (≈ 0.83 µM).

As to `COC(C(=O)OC1CC2(C)OCC3(CCCCC13)OO2)(c1ccccc1)C(F)(F)F` [Compound 19b, (3S,5S,5aS,9aR)-3-methyloctahydro-1H-3,9a-epidioxybenzo[c]oxepin-5-yl(R)-3,3,3-trifluoro-2-methoxy-2-phenylpropanoate], the “Relative Activity D-6” value is 0.50 in series [1] (setting [5]) and 0.50% in series [1] (setting [4]). Also, the “IC50 (ng/mL) D-6” value in series [1] was 2169.31 ng/mL (≈ 5.04 µM). The results for the “Relative Activity W-2” value in series [2] (setting [5]) and in series [2] (setting [4]) were 0.34 and 0.34%, respectively. For the same compound, the “IC50 (ng/mL) W-2” value in series [2] is 2255.40 ng/mL (≈ 5.24 µM).

The compound `CC(=O)OCC12CCCCC1C(O)CO2` (stereo not shown) [Compound 22, (3-Hydroxyhexahydrobenzofuran-7a(2H)-yl)methyl acetate] returned a melting point of 123 to 125 °C. Also, in series [3], the “in vitro antimalarial activity (in words)” value was “Neither 22 nor 29 possessed in vitro antimalarial activity; also recorded: no antimalarial activity”.

As for `CC(=O)OCC1(O)CCCCC1C(C)=O` (stereo not shown) [Compound 29, (2-Acetyl-1-hydroxycyclohexyl)methyl acetate], in series [3], the “in vitro antimalarial activity (in words)” value was “Neither 22 nor 29 possessed in vitro antimalarial activity; also recorded: no antimalarial activity”.
